{
  "source": "patent US10143688B2",
  "about": "“Mesylic acid salt of acylthiourea compound, crystal of the same, and process for producing these” (priority 2015, dated 2018)",
  "key": {"[1]": {"assay": "Solid stability test (purity by liquid chromatography, XRD, TG-DTA after storage)", "format": "physicochemical", "conditions": "1 month at 40° C. (open system), 40° C. (humidity, 75%), or 60° C. (open system)", "method": "An examination by liquid chromatography was made under the following test conditions.\nApparatus: Hitachi L-2455\nMobile phase A: 10 mM aqueous Na2HPO4 solution (pH, 6.5)\nMobile phase B: acetonitrile\nColumn: GL Science Inertsil ODS-3; 4.6×150 mm; S=5 μm\nMeasuring wavelength: 220 nm\n(open system), 40° C. (humidity, 75%), or 60° C. (open system). Thereafter, the crystals were examined for purity by liquid chromatography. As a result, the change in purity through the test was 0.1% or less under all those conditions."}, "[2]": {"assay": "Solubility measurement (solubility measuring method of The Japanese Pharmacopoeia)", "conditions": "37° C."}},
  "data": [
    {"smiles": "CNC(=O)c1cc2c(Oc3ccc(NC(=S)NC(=O)Cc4ccccc4)cc3F)ccnc2cc1OC.CS(=O)(=O)O", "note": "[Example 1, mesylic acid salt of 4-(2-fluoro-4-(3-(2-phenylacetyl)thioureido)phenoxy)-7-methoxy-N-methylquinoline-6-carboxamide]", "values": [
      {"measurement": "change in examinations by XRD and TG-DTA", "setting": "[1]", "result": "no marked change"},
      {"measurement": "change in purity through the test", "setting": "[1]; all those conditions", "result": "≤ 0.1", "unit": "%"},
      {"measurement": "Solubility, Taurocholic acid", "setting": "[2]; 20-mM aqueous taurocholic acid solution", "result": 120, "unit": "µg/mL"},
      {"measurement": "Solubility, FeSSIF", "setting": "[2]; FeSSIF", "result": 11, "unit": "µg/mL"},
      {"measurement": "Solubility, Dissolution-test second liquid", "setting": "[2]; dissolution-test second liquid according to The Japanese Pharmacopoeia", "result": 1.0, "unit": "µg/mL"},
      {"measurement": "Solubility, Purified water", "setting": "[2]; purified water", "result": 35, "unit": "µg/mL"}
    ]}
  ]
}
